Data published in US20180237362A1, “NOVEL POLYGODIAL ANALOGS FOR THE TREATMENT OF CANCER AND OTHER PROLIFERATIVE DISEASES” (THE BOARD OF REGENTS OF THE UNIVERSITY OF TAXAS SYSTEM, priority 2015, published 2018).

Key:
[1] = test system: U87 glioblastoma cell cultures; assay: MTT growth curves, U87; assay type: cell-based, human; conditions: apoptosis-resistant U87 GBM; concentrations up to 100 μM
Experimental: (§1) Human mammary carcinoma MCF-7 (ATCC HTB22) cells were cultured in RPMI supplemented with 10% FBS. The U87 cells (ATCC HTB-14) were cultured in DMEM culture medium, while the A549 cells (DSMZ ACC107) were cultured in RPMI culture medium supplemented with 10% heat-inactivated FBS. The GBM Hs683 (ATCC HTB-138) cells were cultivated in DMEM supplemented with 10% FBS. The human uterine sarcoma MES-SA (ATCC CRL1966) and MES-SA/D×5 cells were cultured in RPMI-1640 medium supplemented with 10% FBS with MES SA/D×5 maintained in the presence of 500 nM Doxorubicin (Sigma). SKMEL-28 cells (ATCC HTB72) and U373 GBM cells (ECACC 08061901) were cultured in RPMI culture medium supplemented with 10% heat-inactivated FBS. Cell culture media were supplemented with 4 mM glutamine (Lonza code BE17-605E), 100 μg/mL gentamicin (Lonza code 17-5182), and penicillin-streptomycin (200 units/ml and 200 μg/ml) (Lonza code 17-602E). The MDA-MB-231 (ATCC HTB-26) epithelial mammary adenocarcinoma cells were cultured in Eagle's minimum essential medium (EMEM; Invitrogen) containing 5% fetal calf serum (FCS, Cambrex), 2 mM L-glutamine (Invitrogen), 0.06% HEPES (Invitrogen) and penicillin (50 IU/ml)/streptomycin (50 µg/ml; Invitrogen) at 37° C. in a humidified atmosphere of 5% CO2 in air. Transformed mouse NPCs were cultured in suspension under neurosphere conditions at 37° C. in a humidified atmosphere of […] and 5% CO2 in DMEM F12 (Invitrogen 11320-074) supplemented with 1×B27 supplement (Invitrogen 17504-044), 5% penicillin-streptomycin (Biochrom 10378-017), 10 ng/ml EGF (R&D systems 236-EG), 10 ng/ml FGF (PeproTech 100-18B).
Antiproliferative properties of the synthesized compounds were evaluated by the MTT assay. All compounds were dissolved in DMSO at a concentration of either 100 μM or 50 μM prior to cell treatment. The cells were trypsinized and seeded at various cell concentrations depending on the cell type. […]

[2] = test system: transgenic mouse glioma cells (neurosphere cultures); assay: CytoTox-Fluor cytotoxicity assay, neurosphere glioma cultures; assay type: cell-based; conditions: cdkn2a deletion with PDGFB or EGFRvIII; 24 h; 5 at 20 μM, CBD at 10 μM
Experimental: FIGS. 5A-D. Activity of 5 against neurosphere glioma cell cultures with clinically relevant mutations. Transgenic mouse glioma cells of defined molecular subtypes were generated by forced expression of EGFRvIII (classical GBM subtype), PDGFB (proneural GBM subtype) in cdkn2a-deficient and cdkn2a/TRPV1-doubly deficient subventricular neural precursors (NPC). These primary cell cultures were treated for 24 hours either with 10 μM CBD versus a corresponding vehicle-control (containing 0.01% DMSO) or 20 μM of 5 versus vehicle control (0.02% DMSO). Cytotoxicity was measured 24 h after incubation and base-line cytotoxicity levels in the controls were arbitrarily defined as 1. Read-outs from treated cells were normalized to their respective vehicle controls and -fold change of relative cytotoxicity was calculated. Each bar represents the mean±SD from two independent experiments; statistical significance, as determined by unpaired t-tests, is indicated: *** represents p<0.001; ** p<0.005; * p=0.0257; ns not significant).
Human mammary carcinoma MCF-7 (ATCC HTB22) cells were cultured in RPMI supplemented with 10% FBS. […]
The CytoTox-Fluor cytotoxicity assay from Promega has been used according to manufacturer's instructions. […] After 2 hours of incubation at 37° C., the fluorescence intensity was measured using the Tecan InfiniteF200 fluorescence plate reader (485 nm Ex/520 nm Em). […]

[3] = test system: MDR uterine sarcoma cell line MES-SA/Dx5; assay: MTT antiproliferative assay, MDR MES-SA/Dx5; assay type: cell-based, human
Experimental: as §1
Antiproliferative properties of the synthesized compounds were evaluated by the MTT assay. All compounds were dissolved in DMSO at a concentration of either 100 μM or 50 μM prior to cell treatment. The cells were trypsinized and seeded at various cell concentrations depending on the cell type. The cells were grown for 24 h to 72 h, treated with compounds at concentrations ranging from 0.001 to 100 μM and incubated for 48 or 72 h in 100 or 200 μL media depending on the cell line used. The number of experiments and replicates varied depending on the cell line. Cells treated with 0.1% DMSO were used as a negative control; 1 μM PAO was used as a positive control.
Selection of the MES-SA/D×5 cell line was done according to Harker et al. (Harker & Sikic, 1985). The cells were split and allowed to adhere overnight. The next day cells were initially exposed to doxorubicin (DOX) at the concentration of 100 nM, which represented the GI50 concentration. The cells were maintained at this DOX concentration until their growth rate reached that of the untreated cells. The DOX concentration was then increased in two-fold increments following the same growth criteria at each concentration to a final DOX concentration of 500 nM. Each new DOX concentration required approximately 2 passages to reach the growth rate of the untreated cells.
Often, tumors initially respond to chemotherapy but eventually become refractory to the continuing treatment. Such acquired resistance commonly occurs through the development of a multi-drug resistant phenotype (MDR) (Gottesman et al., 2002 and Saraswathy & Gong, 2013) affecting many common chemotherapeutic agents, including the vinca alkaloids (Chen et al., 2000) and taxanes (Geney et al., 2002). In addition, the development of apoptosis resistance and MDR mechanisms is often related and concurrent (Ruefli et al., 2002 and Johnstone et al., 1999), and thus it was of interest to evaluate 5 against MDR cells. Towards this end, the MDR uterine sarcoma cell line MES-SA/D×5, established by growing the parent uterine sarcoma MES-SA in the presence of increasing concentrations of doxorubicin and resistant to multiple functionally and structurally unrelated molecules (Harker & Sikic, 1985), was utilized.

Cal27-derived tumors = assay: Mouse xenograft model, Cal27; assay type: in vivo, athymic nude mice
Experimental: Six-week old female athymic nude mice were used in laminar air-flow cabinet in pathogen-free conditions. They were acclimated for one week prior to the start of the study and kept at controlled temperature and humidity, with food and water. Mice were injected subcutaneously in the flank with 2×10^6 Cal27 cells or HeLa cells in 0.1 mL of sterile PBS. When the tumors reached 100 mm^3 (Cal27) and 150 mm^3 (HeLa), the mice were stratified into 4 groups, […], polygodial, P10, P3 and P27 at the concentrations noted in the figure legends.

inflammatory response, Cal27 xenograft mice (Cal27-derived tumors; days 2-4, intra-tumor injection)	Structure (SMILES)	effect on proliferation/viability of all cells, U87 [1]	cytotoxicity against GBM neurosphere cultures [2]	change of potency against MES-SA/Dx5 MDR cell line as compared with parent MES-SA cells ([3]; 48 h MTT)	GI50 ([3]; 48 h treatment, MTT assay, relative to DMSO control, read-out: GI50 in vitro values, MES-SA/Dx5)	anti-tumor effect, Cal27-derived tumors (Cal27-derived tumors; 40 μg/100 μl intra-tumor injection every other day for 18 days, no significant difference between polygodial and P27)
	COC(=O)/C=C/C1=CC[C@H]2C(C)(C)CCC[C@]2(C)[C@H]1C=O [Compound 5]	growth inhibitory properties against most of the cells	effectiveness similar to that of cannabidiol (CBD)	little variation in the sensitivities of the two cell lines	45 µM	
notable inflammatory response	CC1(C)CCC[C@]2(C)[C@@H](C=O)C(C=O)=CC[C@@H]12 [Compound 1, Polygodial]					significant anti-tumor effects
